For the assay, the system named is blood sugar. Nature of the assay: Test Example 1: average fall of the blood sugar in rabbits after insulin. It is filed as in vivo, New Zealand rabbits. The note with it: subcutaneous 2 IU/rabbit, level at 0 min = 100%. As for the experimental part: The composition contained insulin at […] (5 insulin units (IU)/rabbit).
The composition was nasally administered to six male New Zealand rabbits at one time, and the average fall of the blood sugar was measured at 0, 15, 30, 60, 120 and 180 min after administration.
For comparison, 2 IU/rabbit of insulin was subcutaneously injected to six male New Zealand rabbits and the average fall of the blood sugar was measured at 0, 60, 120, 240, and 360 min after administration.
The results are shown in Table 1, in which the average fall of the blood sugar is indicated in percentage assuming the blood sugar level at 0 min to be 100%.

The source of these data is US5908824A, “Nasally administrable compositions containing physiologically active peptides” (Dott Research Laboratory, priority 1995, dated 1999).

Turning to insulin [Control], the “Blood sugar level (% of 0-min level)” value is 100% (0 min after administration); 57% (60 min after administration); 56% (120 min after administration); 84% (240 min after administration); 94% (360 min after administration).
